The target of experiment [1] is Beta-3 adrenergic receptor (Homo sapiens, UniProt P13945). Put plainly: DRUGMATRIX: Adrenergic beta3 radioligand binding (ligand: [125I] Cyanopindolol). It counts as cell membranes, HEK293, Membrane. Particulars: hek293; Not Active = under 50% inhibition at 10 µM.
Experiment [2] addresses Sodium-dependent noradrenaline transporter (Homo sapiens, UniProt P23975). Put plainly: DRUGMATRIX: Norepinephrine Transporter radioligand binding (ligand: [125I] RTI-55). In kind it is cell membranes, MDCK, Membrane. The settings on record: Not Active = under 50% inhibition at 10 µM.
Experiment [3] addresses Sigma non-opioid intracellular receptor 1 (Homo sapiens, UniProt Q99720). Put plainly: DRUGMATRIX: Sigma1 radioligand binding (ligand: [3H] Haloperidol). The settings on record: jurkat; Not Active = under 50% inhibition at 10 µM. It counts as cell membranes, Jurkat, Membrane.
The next experiment deals with D(1A) dopamine receptor (Homo sapiens, UniProt P21728). Put plainly: DRUGMATRIX: Dopamine D1 radioligand binding (ligand: [3H] SCH-23390). The settings on record: Not Active = under 50% inhibition at 10 µM. It counts as cell membranes, CHO, Membrane.
Chain of D(1A) dopamine receptor (P21728 whole entry): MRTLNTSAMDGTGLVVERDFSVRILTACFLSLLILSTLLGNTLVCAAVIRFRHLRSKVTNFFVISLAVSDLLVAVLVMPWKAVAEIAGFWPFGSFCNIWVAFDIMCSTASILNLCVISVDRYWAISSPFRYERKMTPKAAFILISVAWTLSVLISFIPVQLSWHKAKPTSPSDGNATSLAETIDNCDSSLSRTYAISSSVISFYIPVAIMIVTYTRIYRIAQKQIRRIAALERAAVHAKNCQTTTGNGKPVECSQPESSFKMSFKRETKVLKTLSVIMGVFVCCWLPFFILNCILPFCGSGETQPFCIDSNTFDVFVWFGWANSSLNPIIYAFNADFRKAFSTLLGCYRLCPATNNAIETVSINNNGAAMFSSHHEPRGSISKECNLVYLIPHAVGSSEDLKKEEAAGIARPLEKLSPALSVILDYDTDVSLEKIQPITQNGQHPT
In experiment [4] the target is Matrix metalloproteinase-9 (Homo sapiens, UniProt P14780). Put plainly: biochemical. In kind it is cell-based.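 Also: inhibition of isolated MMP-9 enzyme activity toward a synthetic peptide substrate, from the DrugMatrix protease screening panel; in other assays of this panel Not Active means under 50% inhibition at 10 µM.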
Chain of Matrix metalloproteinase-9 (P14780 whole entry): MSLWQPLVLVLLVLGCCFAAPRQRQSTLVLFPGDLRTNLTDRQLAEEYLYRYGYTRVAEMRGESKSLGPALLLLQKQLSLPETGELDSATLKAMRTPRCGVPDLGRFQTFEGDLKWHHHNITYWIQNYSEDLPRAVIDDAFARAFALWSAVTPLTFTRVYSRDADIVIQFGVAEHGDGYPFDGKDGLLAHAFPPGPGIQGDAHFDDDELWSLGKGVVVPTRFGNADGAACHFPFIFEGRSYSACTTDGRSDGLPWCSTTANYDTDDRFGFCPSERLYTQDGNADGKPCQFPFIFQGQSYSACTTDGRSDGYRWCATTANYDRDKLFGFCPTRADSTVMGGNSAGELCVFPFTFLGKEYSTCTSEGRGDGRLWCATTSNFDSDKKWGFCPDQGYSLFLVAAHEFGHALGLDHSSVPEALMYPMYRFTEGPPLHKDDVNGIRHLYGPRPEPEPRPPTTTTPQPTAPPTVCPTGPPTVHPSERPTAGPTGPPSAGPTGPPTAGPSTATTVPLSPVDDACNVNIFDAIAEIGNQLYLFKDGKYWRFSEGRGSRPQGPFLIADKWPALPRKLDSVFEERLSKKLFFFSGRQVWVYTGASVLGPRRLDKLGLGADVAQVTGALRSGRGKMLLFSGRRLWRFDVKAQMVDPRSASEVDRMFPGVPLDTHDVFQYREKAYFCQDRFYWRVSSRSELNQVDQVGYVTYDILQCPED

This passage reports IC50 and Ki results from ChEMBL document CHEMBL1909046, “DrugMatrix in vitro pharmacology data”.

Chain of Sigma non-opioid intracellular receptor 1 (Q99720 whole entry): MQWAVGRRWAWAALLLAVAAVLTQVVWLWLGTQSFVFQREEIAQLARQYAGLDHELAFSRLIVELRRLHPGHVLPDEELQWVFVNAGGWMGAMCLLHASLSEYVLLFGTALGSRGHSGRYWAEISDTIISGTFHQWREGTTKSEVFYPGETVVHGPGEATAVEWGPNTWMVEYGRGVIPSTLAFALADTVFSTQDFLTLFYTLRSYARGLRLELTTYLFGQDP
Chain of Beta-3 adrenergic receptor (P13945 whole entry): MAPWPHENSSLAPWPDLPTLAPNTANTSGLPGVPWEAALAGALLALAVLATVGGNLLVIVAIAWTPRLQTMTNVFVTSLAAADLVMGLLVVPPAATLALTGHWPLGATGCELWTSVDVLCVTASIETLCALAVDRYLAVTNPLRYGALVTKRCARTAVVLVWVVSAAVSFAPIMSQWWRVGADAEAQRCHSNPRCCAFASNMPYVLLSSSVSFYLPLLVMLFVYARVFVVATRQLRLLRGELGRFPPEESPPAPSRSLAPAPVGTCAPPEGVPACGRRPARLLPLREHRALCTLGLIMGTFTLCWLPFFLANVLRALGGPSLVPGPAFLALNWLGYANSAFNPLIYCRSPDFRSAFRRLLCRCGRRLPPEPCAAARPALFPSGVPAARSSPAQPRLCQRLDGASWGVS
Chain of Sodium-dependent noradrenaline transporter (P23975 whole entry): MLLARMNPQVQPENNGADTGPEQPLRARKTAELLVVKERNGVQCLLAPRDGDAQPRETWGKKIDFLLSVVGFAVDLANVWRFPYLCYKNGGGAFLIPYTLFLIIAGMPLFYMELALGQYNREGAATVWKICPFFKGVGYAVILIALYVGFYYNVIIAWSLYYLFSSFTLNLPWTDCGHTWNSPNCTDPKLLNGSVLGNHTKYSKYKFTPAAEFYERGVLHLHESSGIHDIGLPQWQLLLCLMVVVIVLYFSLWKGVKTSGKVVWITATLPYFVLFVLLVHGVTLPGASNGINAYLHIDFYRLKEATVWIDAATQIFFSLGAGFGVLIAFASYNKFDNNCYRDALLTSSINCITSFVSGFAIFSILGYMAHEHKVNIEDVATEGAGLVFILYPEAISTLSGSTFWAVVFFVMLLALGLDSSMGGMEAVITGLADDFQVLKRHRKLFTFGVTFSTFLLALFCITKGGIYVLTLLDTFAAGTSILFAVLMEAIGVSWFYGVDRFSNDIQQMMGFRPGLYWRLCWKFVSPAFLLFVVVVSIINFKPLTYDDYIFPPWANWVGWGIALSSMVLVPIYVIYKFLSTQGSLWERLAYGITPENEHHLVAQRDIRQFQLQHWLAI

The term IC50 denotes the point on the concentration scale where inhibition reaches its midpoint. In general, Ki refers to the dissociation constant of the complex between target and ligand, obtained from inhibition or displacement. Regarding `CC[C@@H](CO)NC(=O)[C@@H]1C=C2c3cccc4[nH]cc(c34)C[C@H]2N(C)C1` [METHYLERGONOVINE], the IC50 entry in experiment [1] is “Not Active”; in experiment [2] (mdck), “Not Active”; in experiment [3], “Not Active”; on D(1A) dopamine receptor (read-out: IC50), 1.08 µM; in experiment [4], “Not Active”. For the same molecule, the Ki on D(1A) dopamine receptor (read-out: Ki) is 0.539 µM.

On to `COc1nc(C)nc(Cl)c1NC1=NCCN1` [MOXONIDINE], for which the half-inhibitory concentration (IC50) entry (in experiment [1]; in experiment [2] (mdck); in experiment [3]; on D(1A) dopamine receptor (cho); in experiment [4]) was “Not Active” each time.

For the molecule `COc1c(C)c2c(c(O)c1C/C=C(\C)CCC(=O)O)C(=O)OC2` [MYCOPHENOLIC ACID], the IC50 result (in experiment [1]; in experiment [2] (mdck); in experiment [3]; at D(1A) dopamine receptor (cho); in experiment [4]) was “Not Active” in each case.

On to `O=c1ncn2nc(Sc3ccc(F)cc3F)ccc2c1-c1c(Cl)cccc1Cl` [NEFLAMAPIMOD], for which the IC50 entry is “Not Active” in experiment [1]; 20.4 µM in experiment [2] (read-out: IC50); “Not Active” in experiment [3]; “Not Active” on D(1A) dopamine receptor (cho); “Not Active” in experiment [4]. Moreover, in experiment [2] (read-out: Ki), the Ki came out at 20.2 µM.

Take `CO[C@H]1/C=C/O[C@@]2(C)Oc3c(C)c(O)c4c(O)c(c(/C=N/N5CCN(C)CC5)c(O)c4c3C2=O)NC(=O)/C(C)=C\C=C\[C@H](C)[C@H](O)[C@@H](C)[C@@H](O)[C@@H](C)[C@H](OC(C)=O)[C@@H]1C` [RIFAMPIN]: the IC50 entry (in experiment [1]; in experiment [2] (mdck); in experiment [3]; on D(1A) dopamine receptor (cho); in experiment [4]) was “Not Active” throughout.

Consider `Nc1nc2ccc(OC(F)(F)F)cc2s1` [RILUZOLE], for which the half-inhibitory concentration (IC50) entry in experiment [1] is “Not Active”; in experiment [2] (read-out: IC50), 1.73 µM; in experiment [3], “Not Active”; on D(1A) dopamine receptor (cho), “Not Active”; in experiment [4], “Not Active”. In experiment [2] (read-out: Ki), the inhibition constant (Ki) stood at 1.72 µM.

With `C=CCC1(C(C)CCC)C(=O)NC(=O)NC1=O` (stereo not given) [SECOBARBITAL], the concentration for half-maximal inhibition (IC50) result in experiment [1] is “Not Active”; in experiment [2] (mdck), “Not Active”; in experiment [3], “Not Active”; on D(1A) dopamine receptor (cho), “Not Active”; in experiment [4] (read-out: IC50), 2.64 µM.

In the case of `C[C@@H]1CN(c2c(F)c(N)c3c(=O)c(C(=O)O)cn(C4CC4)c3c2F)C[C@H](C)N1` [SPARFLOXACIN], the IC50 result (in experiment [1]; in experiment [2] (mdck); in experiment [3]; on D(1A) dopamine receptor (cho); in experiment [4]) was “Not Active” throughout.

On to `Cc1noc(NS(=O)(=O)c2ccc(N)cc2)c1C` [SULFISOXAZOLE], for which the half-maximal inhibitory concentration (IC50) entry (in experiment [1]; in experiment [2] (mdck); in experiment [3]; on D(1A) dopamine receptor (cho); in experiment [4]) was “Not Active” throughout.

With `CSc1ccc(/C=C2/C(C)=C(CC(=O)O)c3cc(F)ccc32)cc1` [SULINDAC SULFIDE], the IC50 entry in experiment [1] is “Not Active”; in experiment [2] (mdck) it was “Not Active”; in experiment [3], “Not Active”; on D(1A) dopamine receptor (read-out: IC50), 27.8 µM; in experiment [4], “Not Active”. For the same molecule, the Ki at D(1A) dopamine receptor (read-out: Ki) was 13.9 µM.

As to `Nc1c2c(nc3ccccc13)CCCC2` [TACRINE], the IC50 entry in experiment [1] is “Not Active”; in experiment [2] (read-out: IC50) it was 0.517 µM; in experiment [3], “Not Active”; at D(1A) dopamine receptor (cho), “Not Active”; in experiment [4], “Not Active”. The Ki in experiment [2] (read-out: Ki) is 0.513 µM.

As for `Nc1nc2nc[nH]c2c(=S)[nH]1` [THIOGUANINE], the half-maximal inhibitory concentration (IC50) result (in experiment [1]; in experiment [2] (mdck); in experiment [3]; on D(1A) dopamine receptor (cho); in experiment [4]) was “Not Active” throughout.

Turning to `Cc1cccc(N(C)C(=S)Oc2ccc3ccccc3c2)c1` [TOLNAFTATE], the IC50 result (in experiment [1]; in experiment [2] (mdck); in experiment [3]; on D(1A) dopamine receptor (cho); in experiment [4]) was “Not Active” each time.

Regarding `NC[C@H]1CC[C@H](C(=O)O)CC1` [TRANEXAMIC ACID], the IC50 entry (in experiment [1]; in experiment [2] (mdck); in experiment [3]; on D(1A) dopamine receptor (cho); in experiment [4]) was “Not Active” in each case.

In the case of `CC1(C)O[C@@H]2C[C@H]3[C@@H]4CCC5=CC(=O)C=C[C@]5(C)[C@@]4(F)[C@@H](O)C[C@]3(C)[C@]2(C(=O)CO)O1` [TRIAMCINOLONE ACETONIDE], the IC50 result (in experiment [1]; in experiment [2] (mdck); in experiment [3]; at D(1A) dopamine receptor (cho); in experiment [4]) was “Not Active” each time.

With `NS(=O)(=O)c1cc2c(cc1Cl)NC(C(Cl)Cl)NS2(=O)=O` (stereo not given) [TRICHLORMETHIAZIDE], the IC50 entry (in experiment [1]; in experiment [2] (mdck); in experiment [3]; on D(1A) dopamine receptor (cho); in experiment [4]) was “Not Active” each time.

In the case of `Cc1c(C)c2c(c(C)c1O)CCC(C)(COc1ccc(CC3SC(=O)NC3=O)cc1)O2` (stereo not given) [TROGLITAZONE], the 50% inhibitory concentration (IC50) result (in experiment [1]; in experiment [2] (mdck); in experiment [3]; at D(1A) dopamine receptor (cho); in experiment [4]) was “Not Active” throughout.

For the molecule `N[C@@H]1[C@H]2CN(c3nc4c(cc3F)c(=O)c(C(=O)O)cn4-c3ccc(F)cc3F)C[C@@H]12` [TROVAFLOXACIN], the IC50 entry (in experiment [1]; in experiment [2] (mdck); in experiment [3]; at D(1A) dopamine receptor (cho); in experiment [4]) was “Not Active” in each case.

As to `N#CC(C#N)=Cc1ccc(O)c(O)c1` [TYRPHOSTIN 23], the IC50 entry (in experiment [1]; in experiment [2] (mdck); in experiment [3]; at D(1A) dopamine receptor (cho); in experiment [4]) was “Not Active” throughout.

On to `CC[C@]1(O)C[C@H]2CN(CCc3c([nH]c4ccccc34)[C@@](C(=O)OC)(c3cc4c(cc3OC)N(C=O)[C@H]3[C@@](O)(C(=O)OC)[C@H](OC(C)=O)[C@]5(CC)C=CCN6CC[C@]43[C@@H]65)C2)C1` [VINCRISTINE], for which the IC50 entry (in experiment [1]; in experiment [2] (mdck); in experiment [3]; on D(1A) dopamine receptor (cho); in experiment [4]) was “Not Active” in each case.

Take `CCCOc1ccccc1-c1nc2nn[nH]c2c(=O)[nH]1` [ZAPRINAST]: the concentration for half-maximal inhibition (IC50) entry (in experiment [1]; in experiment [2] (mdck); in experiment [3]; at D(1A) dopamine receptor (cho); in experiment [4]) was “Not Active” each time.

Turning to SODIUM NITROPRUSSIDE, the IC50 entry (in experiment [1]; in experiment [2] (mdck); in experiment [3]; at D(1A) dopamine receptor (cho); in experiment [4]) was “Not Active” in each case. The Ki entry (in experiment [1]; in experiment [2] (mdck); in experiment [3]; on D(1A) dopamine receptor (cho); in experiment [4]) was “Not Active” in each case.
